Test system: ALAS1
Assay: qRT-PCR analysis of ALAS1 expression in SHSY5Y cells
Assay type: cell-based, human
Settings: 5 mM ALA for 15 hours vs non-treated
Description: (A) Heme content in SHSY5Y cells non-treated (NT) or treated with 5 mM ALA for 15 hours. Values are expressed as pmol heme/mg protein. Data represent mean±SEM, n=3; *=P<0.05. (B, C) qRT-PCR analysis of the expression of ALAS1 (B) and FLVCR1a (C) in SHSY5Y cells non-treated (NT) or treated with 5 mM ALA for 15 hours. Transcript abundance, normalized to beta-actin mRNA expression, is expressed as a fold increase over a calibrator sample. Data represent mean±SEM, n=4. For statistical analyses, an unpaired Student's t-test was used; *p<0.05. (D) qRT-PCR analysis of the expression of ALAS1 in SKCO1 cells untreated (NT) or treated with 5 mM ALA for 24 hours. Transcript abundance, normalized to beta-actin mRNA expression, is expressed as a fold increase over a calibrator sample. Data represent mean±SEM, n=5. […] Band intensities were measured by densitometry and normalized to beta-actin expression. […] (F) Proliferation of SHSY5Y cells assessed by crystal violet staining at different time points (starting from the day after plating, named “day 0”). Treatment with 5 mM ALA occurred at “day 0” and cells were monitored until the end of the experiment without medium refresh. […] (G) SKCO1 cells viability measured by the CellTiter-Fluor Cell Viability Assay (Promega, Madison, WI USA, catalog n°G6080) at different time points, starting from the day after plating (named “day 0”), as a readout of cell proliferation. […]

Cl.NCC(=O)CCC(=O)O [5-ALA, 5-Aminolevulinic acid hydrochloride]
ALAS1 transcript levels: reduced
